# Tests used:
# Test in all cases: radiometric filter-binding kinase assay, Kinase HotSpot
# Conditions in all cases: compound 0.5 µM; ATP 10 µM
# [1] = target: MAPK1 (human) (UniProt P28482)
# [2] = target: CAMK4 (human) (UniProt Q16566)
# [3] = target: RPS6KA5 KD2 (human) (UniProt O75582)
# [4] = target: NEK4 (human) (UniProt P51957)
# [5] = target: WEE1 (human) (UniProt P30291)
# [6] = target: ADRBK2 (human) (UniProt P35626)
# [7] = target: AURKA (human) (UniProt O14965)
# [8] = target: EPHB4 (human) (UniProt P54760)
# [9] = target: GSG2 (human) (UniProt Q8TF76)
# [10] = target: NEK3 (human) (UniProt P51956)
# [11] = target: VRK1 (human) (UniProt Q99986)
# [12] = target: CSK (human) (UniProt P41240)
# [13] = target: PDGFRA (human) (UniProt P16234)
# [14] = target: TNK2 (human) (UniProt Q07912)
# [15] = target: TYK2 JH1 catalytic (human) (UniProt P29597)
# [16] = target: SRPK1 (human) (UniProt Q96SB4)
# [17] = target: YES1 (human) (UniProt P07947)
# [18] = target: INSRR (human) (UniProt P14616)
# [19] = target: BTK (human) (UniProt Q06187)
# [20] = target: PRKG2 (human) (UniProt Q13237)
# [21] = target: TSSK2 (human) (UniProt Q96PF2)
# Sequence of TSSK2 (human) (Q96PF2 whole entry, looked up): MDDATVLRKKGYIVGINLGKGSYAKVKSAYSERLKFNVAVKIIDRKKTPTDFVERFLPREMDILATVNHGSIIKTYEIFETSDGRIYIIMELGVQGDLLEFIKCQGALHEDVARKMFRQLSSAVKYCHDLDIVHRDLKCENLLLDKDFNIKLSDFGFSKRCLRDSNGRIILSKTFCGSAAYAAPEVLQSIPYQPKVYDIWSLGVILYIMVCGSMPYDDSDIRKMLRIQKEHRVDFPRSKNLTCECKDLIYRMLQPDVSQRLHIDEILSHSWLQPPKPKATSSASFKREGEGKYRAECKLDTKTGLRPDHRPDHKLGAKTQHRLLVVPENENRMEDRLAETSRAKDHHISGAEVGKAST
# [22] = target: JAK1 JH1 catalytic (human) (UniProt P23458)
# [23] = target: CHUK (human) (UniProt O15111)
# [24] = target: NEK6 (human) (UniProt Q9HC98)
# [25] = target: ITK (human) (UniProt Q08881)
# [26] = target: MAPKAPK5 (human) (UniProt Q8IW41)
# Sequence of MAPKAPK5 (human) (Q8IW41 whole entry, looked up): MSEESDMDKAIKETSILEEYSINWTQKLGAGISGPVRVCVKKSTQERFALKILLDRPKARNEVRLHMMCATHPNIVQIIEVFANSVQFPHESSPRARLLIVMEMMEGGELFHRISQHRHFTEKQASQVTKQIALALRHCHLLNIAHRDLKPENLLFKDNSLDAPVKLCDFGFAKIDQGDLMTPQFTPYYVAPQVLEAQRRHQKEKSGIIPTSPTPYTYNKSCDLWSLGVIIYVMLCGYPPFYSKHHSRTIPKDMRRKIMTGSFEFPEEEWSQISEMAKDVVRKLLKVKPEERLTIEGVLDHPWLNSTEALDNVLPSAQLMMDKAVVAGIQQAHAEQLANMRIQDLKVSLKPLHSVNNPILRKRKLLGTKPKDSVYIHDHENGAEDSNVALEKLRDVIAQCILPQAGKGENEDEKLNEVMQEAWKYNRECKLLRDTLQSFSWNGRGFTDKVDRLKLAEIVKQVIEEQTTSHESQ
# [27] = target: SIK2 (human) (UniProt Q9H0K1)
# [28] = target: PAK2 (human) (UniProt Q13177)
# [29] = target: PDGFRB (human) (UniProt P09619)
# [30] = target: PRKCE (human) (UniProt Q02156)
# Sequence of PRKCE (human) (Q02156 whole entry, looked up): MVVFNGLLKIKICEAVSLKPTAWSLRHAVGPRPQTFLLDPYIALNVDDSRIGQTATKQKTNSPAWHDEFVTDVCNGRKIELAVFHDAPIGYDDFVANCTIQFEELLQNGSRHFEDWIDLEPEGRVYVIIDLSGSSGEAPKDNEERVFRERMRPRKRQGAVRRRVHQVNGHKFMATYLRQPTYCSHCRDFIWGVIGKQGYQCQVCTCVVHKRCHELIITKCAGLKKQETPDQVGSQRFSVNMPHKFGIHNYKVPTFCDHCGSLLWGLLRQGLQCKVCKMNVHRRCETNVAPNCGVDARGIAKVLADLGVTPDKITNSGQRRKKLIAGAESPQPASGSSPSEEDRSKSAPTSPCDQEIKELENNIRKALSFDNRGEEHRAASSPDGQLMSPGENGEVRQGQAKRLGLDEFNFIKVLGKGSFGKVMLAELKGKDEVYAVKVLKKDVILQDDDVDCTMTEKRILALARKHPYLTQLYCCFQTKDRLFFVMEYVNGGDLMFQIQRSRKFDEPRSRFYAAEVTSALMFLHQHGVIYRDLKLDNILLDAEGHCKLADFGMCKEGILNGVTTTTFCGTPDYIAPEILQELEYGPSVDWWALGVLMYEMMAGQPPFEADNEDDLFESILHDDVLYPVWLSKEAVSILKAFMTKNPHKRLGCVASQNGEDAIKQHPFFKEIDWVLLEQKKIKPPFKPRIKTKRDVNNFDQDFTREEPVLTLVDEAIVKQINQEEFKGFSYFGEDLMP
# [31] = target: MATK (human) (UniProt P42679)
# [32] = target: MAP3K9 (human) (UniProt P80192)
# [33] = target: MAP2K2 (human) (UniProt P36507)
# [34] = target: TEC (human) (UniProt P42680)
# [35] = target: NEK11 (human) (UniProt Q8NG66)
# [36] = target: CDK5 CDK5R1 p35 (human) (UniProt Q00535+Q15078)
# [37] = target: GRK5 (human) (UniProt P34947)
# Sequence of GRK5 (human) (P34947 whole entry, looked up): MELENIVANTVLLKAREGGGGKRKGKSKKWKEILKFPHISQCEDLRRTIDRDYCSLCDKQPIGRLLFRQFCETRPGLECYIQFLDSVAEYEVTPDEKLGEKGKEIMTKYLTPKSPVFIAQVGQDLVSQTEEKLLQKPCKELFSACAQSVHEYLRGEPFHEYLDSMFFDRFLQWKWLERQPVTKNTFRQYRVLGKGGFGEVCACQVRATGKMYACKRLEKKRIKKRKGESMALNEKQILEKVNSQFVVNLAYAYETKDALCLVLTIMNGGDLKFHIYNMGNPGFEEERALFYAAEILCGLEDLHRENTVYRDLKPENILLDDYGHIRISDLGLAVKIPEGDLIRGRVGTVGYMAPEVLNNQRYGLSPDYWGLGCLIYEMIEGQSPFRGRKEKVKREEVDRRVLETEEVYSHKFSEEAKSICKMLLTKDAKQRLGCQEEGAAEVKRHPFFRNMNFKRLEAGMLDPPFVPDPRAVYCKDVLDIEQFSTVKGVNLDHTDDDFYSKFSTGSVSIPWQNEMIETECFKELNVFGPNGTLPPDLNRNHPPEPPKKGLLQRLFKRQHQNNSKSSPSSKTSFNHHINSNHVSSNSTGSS
# [38] = target: MAPK11 (human) (UniProt Q15759)
# Sequence of MAPK11 (human) (Q15759 whole entry, looked up): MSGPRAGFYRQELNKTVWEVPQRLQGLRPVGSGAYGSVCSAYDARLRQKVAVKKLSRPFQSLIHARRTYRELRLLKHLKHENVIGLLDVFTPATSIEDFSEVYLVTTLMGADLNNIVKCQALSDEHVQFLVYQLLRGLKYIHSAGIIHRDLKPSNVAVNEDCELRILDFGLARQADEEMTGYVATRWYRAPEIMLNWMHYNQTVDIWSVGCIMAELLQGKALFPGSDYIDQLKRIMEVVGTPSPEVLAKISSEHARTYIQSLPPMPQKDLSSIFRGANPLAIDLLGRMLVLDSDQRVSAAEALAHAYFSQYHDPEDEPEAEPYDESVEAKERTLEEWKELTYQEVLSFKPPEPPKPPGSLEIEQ
# [39] = target: PKN1 (human) (UniProt Q16512)
# Sequence of PKN1 (human) (Q16512 whole entry, looked up): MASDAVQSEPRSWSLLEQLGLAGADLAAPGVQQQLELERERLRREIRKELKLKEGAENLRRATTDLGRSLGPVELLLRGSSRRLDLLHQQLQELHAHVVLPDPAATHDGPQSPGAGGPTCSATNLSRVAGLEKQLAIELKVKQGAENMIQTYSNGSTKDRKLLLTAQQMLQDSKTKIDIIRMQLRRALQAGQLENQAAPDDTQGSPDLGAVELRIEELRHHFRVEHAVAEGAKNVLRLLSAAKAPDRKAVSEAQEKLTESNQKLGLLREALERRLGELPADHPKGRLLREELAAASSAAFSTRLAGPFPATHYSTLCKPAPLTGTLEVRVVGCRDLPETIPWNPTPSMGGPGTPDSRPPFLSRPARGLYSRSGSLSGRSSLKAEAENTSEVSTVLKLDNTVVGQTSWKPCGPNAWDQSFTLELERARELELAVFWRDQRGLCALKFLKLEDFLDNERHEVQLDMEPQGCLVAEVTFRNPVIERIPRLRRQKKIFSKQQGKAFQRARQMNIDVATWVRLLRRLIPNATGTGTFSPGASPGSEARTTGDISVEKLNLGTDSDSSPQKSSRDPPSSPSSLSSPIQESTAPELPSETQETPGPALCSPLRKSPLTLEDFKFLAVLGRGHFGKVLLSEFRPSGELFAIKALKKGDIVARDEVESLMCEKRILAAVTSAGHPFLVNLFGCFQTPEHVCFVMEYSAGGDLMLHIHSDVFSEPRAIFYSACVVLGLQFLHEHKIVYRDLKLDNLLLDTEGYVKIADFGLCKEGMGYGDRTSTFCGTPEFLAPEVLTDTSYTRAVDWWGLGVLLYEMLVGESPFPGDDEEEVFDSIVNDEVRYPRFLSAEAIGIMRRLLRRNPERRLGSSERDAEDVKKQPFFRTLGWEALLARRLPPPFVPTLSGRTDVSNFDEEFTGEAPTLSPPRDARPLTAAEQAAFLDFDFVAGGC
# [40] = target: DAPK3 (human) (UniProt O43293)
# [41] = target: NEK9 (human) (UniProt Q8TD19)
# Sequence of NEK9 (human) (Q8TD19 whole entry, looked up): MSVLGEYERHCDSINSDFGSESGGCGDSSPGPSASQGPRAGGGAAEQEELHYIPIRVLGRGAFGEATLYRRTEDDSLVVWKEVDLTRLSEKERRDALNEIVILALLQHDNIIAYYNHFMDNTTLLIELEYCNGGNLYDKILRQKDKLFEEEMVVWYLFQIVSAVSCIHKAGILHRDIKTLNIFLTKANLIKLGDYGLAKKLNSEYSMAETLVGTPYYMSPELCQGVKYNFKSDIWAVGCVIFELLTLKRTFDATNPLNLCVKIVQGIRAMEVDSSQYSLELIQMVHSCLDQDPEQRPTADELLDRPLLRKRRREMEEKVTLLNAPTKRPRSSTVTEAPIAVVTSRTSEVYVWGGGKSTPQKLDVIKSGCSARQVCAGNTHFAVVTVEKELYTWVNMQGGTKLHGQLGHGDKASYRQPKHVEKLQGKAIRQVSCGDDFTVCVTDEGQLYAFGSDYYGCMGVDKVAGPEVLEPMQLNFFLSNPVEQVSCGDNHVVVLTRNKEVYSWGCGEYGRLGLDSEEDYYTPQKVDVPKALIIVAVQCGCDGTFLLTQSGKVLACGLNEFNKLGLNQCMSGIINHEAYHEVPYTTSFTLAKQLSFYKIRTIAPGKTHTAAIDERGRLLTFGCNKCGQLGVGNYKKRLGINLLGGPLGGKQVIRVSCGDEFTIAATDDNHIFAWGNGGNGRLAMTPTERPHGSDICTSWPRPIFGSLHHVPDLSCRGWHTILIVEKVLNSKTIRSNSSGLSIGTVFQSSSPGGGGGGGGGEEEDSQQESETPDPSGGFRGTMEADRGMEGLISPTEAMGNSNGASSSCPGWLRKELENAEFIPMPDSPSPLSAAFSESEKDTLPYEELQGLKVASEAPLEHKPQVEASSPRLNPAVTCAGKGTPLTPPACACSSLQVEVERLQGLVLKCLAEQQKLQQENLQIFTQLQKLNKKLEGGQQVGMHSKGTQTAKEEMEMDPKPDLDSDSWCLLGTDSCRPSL
# [42] = target: HIPK1 (human) (UniProt Q86Z02)
# Sequence of CAMK4 (human) (Q16566 whole entry, looked up): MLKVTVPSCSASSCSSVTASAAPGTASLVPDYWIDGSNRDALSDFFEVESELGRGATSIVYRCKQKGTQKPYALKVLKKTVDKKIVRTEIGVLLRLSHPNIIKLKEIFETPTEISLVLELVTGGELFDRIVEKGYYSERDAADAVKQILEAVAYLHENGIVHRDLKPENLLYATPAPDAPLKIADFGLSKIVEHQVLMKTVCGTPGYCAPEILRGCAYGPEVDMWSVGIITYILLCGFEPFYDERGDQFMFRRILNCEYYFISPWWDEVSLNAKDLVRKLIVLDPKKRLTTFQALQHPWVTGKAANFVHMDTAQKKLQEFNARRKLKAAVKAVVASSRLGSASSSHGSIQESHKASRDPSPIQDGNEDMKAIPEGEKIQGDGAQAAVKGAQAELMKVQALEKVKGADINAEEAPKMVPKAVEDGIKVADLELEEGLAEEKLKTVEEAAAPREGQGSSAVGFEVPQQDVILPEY
smiles,measurement,setting,value
COc1ccc(OC)c2c(=S)c3ccccc3[nH]c12,residual activity,[1],91.5%
same,residual activity,[2],101%
same,residual activity,[3],86%
same,residual activity,[4],87.7%
same,residual activity,[5],102%
same,residual activity,[6],86.5%
same,residual activity,[7],116%
same,residual activity,[8],91.1%
same,residual activity,[9],89.2%
same,residual activity,[10],107%
same,residual activity,[11],100%
same,residual activity,[12],103%
same,residual activity,[13],85.6%
same,residual activity,[14],96.3%
same,residual activity,[15],108%
same,residual activity,[16],99.9%
same,residual activity,[17],89.2%
same,residual activity,[18],88.7%
same,residual activity,[19],102%
same,residual activity,[20],62.2%
same,residual activity,[21],108%
same,residual activity,[22],102%
same,residual activity,[23],94.3%
same,residual activity,[24],101%
same,residual activity,[25],101%
same,residual activity,[26],109%
same,residual activity,[27],114%
same,residual activity,[28],104%
same,residual activity,[29],98.1%
same,residual activity,[30],93.3%
same,residual activity,[31],89.5%
same,residual activity,[32],102%
same,residual activity,[33],100%
same,residual activity,[34],147%
same,residual activity,[35],130%
same,residual activity,[36],86.4%
same,residual activity,[37],108%
same,residual activity,[38],86.7%
same,residual activity,[39],109%
same,residual activity,[40],112%
same,residual activity,[41],95.8%
same,residual activity,[42],107%
CC(=O)O/N=C1\C(=C2\C(=O)Nc3cc(Br)ccc32)Nc2ccccc21,residual activity,[1],87.9%
same,residual activity,[2],86.1%
same,residual activity,[3],83.9%
same,residual activity,[4],85.6%
same,residual activity,[5],93.7%
same,residual activity,[6],95.7%
same,residual activity,[7],55.4%
same,residual activity,[8],92.2%
same,residual activity,[9],85.5%
same,residual activity,[10],130%
same,residual activity,[11],80.7%
same,residual activity,[12],75.5%
same,residual activity,[13],82.9%
same,residual activity,[14],74.7%
same,residual activity,[15],81.6%
same,residual activity,[16],96.7%
same,residual activity,[17],46.4%
same,residual activity,[18],96.7%
same,residual activity,[19],27.3%
same,residual activity,[20],91.4%
same,residual activity,[21],101%
same,residual activity,[22],104%
same,residual activity,[23],98.3%
same,residual activity,[24],100%
same,residual activity,[25],76.8%
same,residual activity,[26],94.9%
same,residual activity,[27],54.6%
same,residual activity,[28],103%
same,residual activity,[29],51.6%
same,residual activity,[30],86.2%
same,residual activity,[31],93%
same,residual activity,[32],51.5%
same,residual activity,[33],83.1%
same,residual activity,[34],131%
same,residual activity,[35],110%
same,residual activity,[36],24.7%
same,residual activity,[37],104%
same,residual activity,[38],83.4%
same,residual activity,[39],96.1%
same,residual activity,[40],82.2%
same,residual activity,[41],86.7%
same,residual activity,[42],83%
Cn1sc(=O)n(Cc2ccccc2)c1=O,residual activity,[1],93.1%
same,residual activity,[2],93.2%
same,residual activity,[3],108%
same,residual activity,[4],98%
same,residual activity,[5],92.3%
same,residual activity,[6],99.6%
same,residual activity,[7],104%
same,residual activity,[8],100%
same,residual activity,[9],99%
same,residual activity,[10],89.3%
same,residual activity,[11],94.2%
same,residual activity,[12],101%
same,residual activity,[13],84.1%
same,residual activity,[14],101%
same,residual activity,[15],96%
same,residual activity,[16],89.8%
same,residual activity,[17],96.3%
same,residual activity,[18],99.3%
same,residual activity,[19],103%
same,residual activity,[20],108%
same,residual activity,[21],100%
same,residual activity,[22],103%
same,residual activity,[23],96.2%
same,residual activity,[24],102%
same,residual activity,[25],93.2%
same,residual activity,[26],94.2%
same,residual activity,[27],98.6%
same,residual activity,[28],104%
same,residual activity,[29],87.3%
same,residual activity,[30],94.8%
same,residual activity,[31],95.3%
same,residual activity,[32],99.4%
same,residual activity,[33],101%
same,residual activity,[34],117%
same,residual activity,[35],102%
same,residual activity,[36],90.1%
same,residual activity,[37],93.6%
same,residual activity,[38],97.2%
same,residual activity,[39],98.5%
same,residual activity,[40],103%
same,residual activity,[41],98.2%
same,residual activity,[42],92.3%
Cn1nc2c3c(cccc31)C(=O)c1ccccc1-2,residual activity,[1],91.7%
same,residual activity,[2],100%
same,residual activity,[3],100%
same,residual activity,[4],89.8%
same,residual activity,[5],92.3%
same,residual activity,[6],93.6%
same,residual activity,[7],89.4%
same,residual activity,[8],99.9%
same,residual activity,[9],53.1%
same,residual activity,[10],96.7%
same,residual activity,[11],84.1%
same,residual activity,[12],88.7%
same,residual activity,[13],97.6%
same,residual activity,[14],83.3%
same,residual activity,[15],89.4%
same,residual activity,[16],99.7%
same,residual activity,[17],94.5%
same,residual activity,[18],82.7%
same,residual activity,[19],89.5%
same,residual activity,[20],105%
same,residual activity,[21],95.4%
same,residual activity,[22],110%
same,residual activity,[23],97%
same,residual activity,[24],108%
same,residual activity,[25],88.3%
same,residual activity,[26],94.5%
same,residual activity,[27],100%
same,residual activity,[28],102%
same,residual activity,[29],100%
same,residual activity,[30],95.7%
same,residual activity,[31],88%
same,residual activity,[32],99.4%
same,residual activity,[33],102%
same,residual activity,[34],102%
same,residual activity,[35],105%
same,residual activity,[36],105%
same,residual activity,[37],93.8%
same,residual activity,[38],109%
same,residual activity,[39],101%
same,residual activity,[40],102%
same,residual activity,[41],96.6%
same,residual activity,[42],112%

# From the kinase profiling compilation of Christmann-Franck et al. (2016)
